From patent US20080317700A1 (priority 2006, published 2008)
Read-outs that look alike come from different tables or passages of the source. Marks after values point to notes of the source that are not given here.

Key:
E Coli DH 5α = assay: Liquid culture growth inhibition (optical density), E. Coli; type: cell-based; conditions: for Optical Density at 680 nm, measurements taken after 24 hours of growth: E. Coli, M9 minimum medium, 30 mM herbicide, control 1.30; for Toxicity towards E. Coli (liquid culture): inhibition only during first 10 hours, beyond 24 hours optical density matched controls
Method: (§1) Strains of green algae, cyanobacteria and E. Coli were used as test organisms. The green algae CD 1 Red and cyanobacteria Synechocystos 6803 were obtained from the collection of Prof. George Bullerjahn. Salt water strain of cyanobacteria Synechococcus 7002 was obtained from the collection of Prof. Michael McKay. E Coli DH 5α was obtained from Invitrogen Inc.
E. Coli was propagated heterotrophically in a 2 mL Eppendorf test-tube containing 1.5 mL of liquid M9 minimum medium (see Supporting Information) and kept on a rotating shaker (100 rpm) at 37° C. for 12 hours. The grown culture medium was sterilized at 121° C., 1.05 kg cm^−2 for 20 min. For the cell experiments, 100 mL aliquots of the M9 medium containing the E. Coli cells ([cells]initial=6×10^5 mL^−1) were distributed into sterile 250 mL Erlenmeyer flasks and treated with a stock herbicide solution to obtain a final concentration of 30 mM, followed by an incubation for 24 h on a rotating shaker (100 rpm) at 37° C. […] Control and treated cultures were grown under the same conditions of temperature and shaking. In each experiment, the inhibition of growth in treated cultures was monitored spectrophotometrically and compared to the growth in control samples.

Solubility (qualitative) = type: physicochemical
Navicula pelliculosa = assay: Inhibition zones around polymer pellets, diatom Navicula; type: cell-based; conditions: pellet without herbicide 10 ± 1
Method: Rectangular copolymer pellets (15×10×1.5 mm) were formed from a model acrylic resin (designated as 459S2) containing several epoxy acrylic oligomers (57%), acrylic monomeric diluents (43%) and a corresponding amount of herbicide. A designated quantity of herbicide was dispersed or partially dissolved in 459S2 resin using ultrasonication and heat (60° C., overnight). To each sample, 1.5% wt. of commercial photoinitiator (ITX), 5% of ODAB synergist and 0.1% co-photoinitiator (Irgacure 819) were added. Liquid formulations were poured into an open top Teflon mold and irradiated under N2 by a 395 nm LED light source for 5 min followed by pellet removal.
Two different diatom cultures, Phaeodactylum tricornutum and Navicula pelliculosa were used in the biological activity tests. […] Following propagation over 5 days under continuous cool fluorescent light (5000 lx), the average radii of inhibition zones were measured. Experiments for each herbicide concentration were repeated at least two times.

[1] = tested on: cyanobacteria Synechocystos 6803; type: cell-based; conditions: Synechocystos 6803, BG-11 agar, 1 mM herbicide; homopolymer as film cast in Petri dish
Method: (§2) BG-11 medium containing 1.5 wt. % agar was prepared and sterilized at 121° C., 1.05 kg cm^−2 for 20 minutes. Each herbicide tested was prepared as a 30 mM solution and added to the autoclaved agar medium to yield a 1 mM final concentration of the herbicide. A 20 mL aliquot of the liquid agar was transferred into a standard Petri dish (100×15 mm) and allowed to harden at room temperature. Cell suspensions of green algae CD 1 Red, cyanobacteria Synechocystos 6803 and Synechococcus 7002 were inoculated using a sterile inoculation loop. Dishes were stored at 25° C. under illumination with the cool-white fluorescent light having a constant light intensity of 5000 lx. The experiment for each herbicide was repeated five times. Control and treated cultures grew under the same conditions of temperature and photoperiod. In each experiment, the inhibition of growth in treated cultures was monitored relative to the growth in control samples using qualitative visual observation.
(§3) Additional experiments for testing the toxicity of the homopolymer of AA were implemented. Ten mL of aqueous polymer solution was placed on a sterile Petri dish and left at room temperature until all water was evaporated (3 days) to form a thin polymer film. Twenty mL of the liquid agar was transferred into the Petri dish and allowed to harden at room temperature. Cell suspensions of green algae CD 1 Red, cyanobacteria Synechocystos 6803 and Synechococcus 7002 were inoculated using a sterile inoculation loop. An analogous system containing no polymer film was used as a control for the experiment. Inhibition of growth in treated cultures was monitored relative to the growth in control samples using qualitative visual observations.

[2] = tested on: cyanobacteria Synechococcus 7002; type: cell-based; conditions: Synechococcus 7002, BG-11 agar, 1 mM herbicide; homopolymer as film cast in Petri dish
Method: as §2, §3

green algae CD 1 Red [3] = type: cell-based; conditions: BG-11 agar, 1 mM herbicide, homopolymer as film cast in Petri dish
Method: as §2, §3

[4] = tested on: cyanobacteria Synechococcus 7002; assay: Liquid culture growth inhibition (optical density), salt water cyanobacteria; type: cell-based; conditions: Synechococcus 7002, BG-11 liquid medium, 1 mM herbicide, 7 days; control 0.72
Method: as §1
Green algae and cyanobacteria were propagated photoautotrophically in 250 mL Erlenmeyer flasks containing 100 mL of liquid BG-11 culture medium (see Supporting Information). The cultures were kept on a rotating shaker (100 rpm) at 25° C. for 4 days and continuously illuminated with cool-white fluorescent light with a constant light intensity of 5000 lux. The grown culture medium was sterilized in an autoclave at 121° C. and 1.05 kg cm^−2 pressure for 20 min. For the cell experiments, 20 mL aliquots of the BG-11 medium containing the green algal ([cells]initial=5.9×10^7 mL^−1) or cyanobacteria cells ([cells]initial=1.7×10^9 mL^−1) were placed in sterile 50 mL Erlenmeyer flasks. CD 1 Red, Synechocystos 6803 and Synechococcus 7002 were then treated with an aliquot of a stock herbicide solution to bring the final herbicide concentration to 1 mM and incubated for 7 days on a rotator shaker (100 rpm) at 25° C. and continuous light intensity of 5000 lux. Cell counts were correlated with the absorbance and measured as a function of time using a Spectronic 20 Genesis spectrophotometer. As previously reported by Ma et al., 5 the optimal wavelength for monitoring culture growth is 680 nm. Experiments for each herbicide were repeated three times. Control and treated cultures were grown under the same conditions of temperature, photoperiod, and agitation. In each experiment, the inhibition of cell growth in treated cultures was monitored spectrophotometrically and compared to the growth in control samples.

green algae CD 1 Red [5] = assay: Liquid culture growth inhibition (optical density), green algae; type: cell-based; conditions: CD1 Red, BG-11 liquid medium, 1 mM herbicide, control 0.55
Method: as §1
(§4) Green algae and cyanobacteria were propagated photoautotrophically in 250 mL Erlenmeyer flasks containing 100 mL of liquid BG-11 culture medium (see Supporting Information). The cultures were kept on a rotating shaker (100 rpm) at 25° C. for 4 days and continuously illuminated with cool-white fluorescent light with a constant light intensity of 5000 lux. The grown culture medium was sterilized in an autoclave at 121° C. and 1.05 kg cm^−2 pressure for 20 min. For the cell experiments, 20 mL aliquots of the BG-11 medium containing the green algal ([cells]initial=5.9×10^7 mL^−1) or cyanobacteria cells ([cells]initial=1.7×10^9 mL^−1) were placed in sterile 50 mL Erlenmeyer flasks. […] Cell counts were correlated with the absorbance and measured as a function of time using a Spectronic 20 Genesis spectrophotometer. […] In each experiment, the inhibition of cell growth in treated cultures was monitored spectrophotometrically and compared to the growth in control samples.

[6] = tested on: cyanobacteria Synechococcus 7002; assay: microbe, parasite or virus in culture; type: cell-based
Method: After phototrophical propagation during the 5 days under cool fluorescence light (intensity 5000 lux), the average radii of inhibition zones were measured. Water soaked filter paper circles were used as controls. Experiments for each herbicide concentration were repeated 3 times.

[7] = tested on: cyanobacteria Synechocystos 6803; assay: Liquid culture growth inhibition (optical density), fresh water cyanobacteria; type: cell-based; conditions: Synechocystos 6803, BG-11 liquid medium, 1 mM herbicide, control 1.4
Method: as §1, §4

[8] = herbicide 0.15 M in 459S2 polymer pellet
[9] = herbicide 0.3 M in 459S2 polymer pellet
[10] = Syn. 7002, herbicide concentration 0.3 mM, 5 days
[11] = Synechococcus, 120 h, read-out: Average radii of the inhibition zones

Row | Structure (SMILES) | Optical Density at 680 nm, measurements taken after 24 hours of growth (E Coli DH 5α) | Toxicity towards E. Coli (liquid culture) (E Coli DH 5α) | Solubility in organic solvents (Solubility (qualitative)) | Solubility in water (Solubility (qualitative)) | Diameter of Inhibition Zone (Bleaching indicates no growth detected on 100 mm plate) (Navicula pelliculosa; [8]) | Diameter of Inhibition Zone (Bleaching indicates no growth detected on 100 mm plate) (Navicula pelliculosa; [9]) | Growth on agar plates compared to control (visual) [1] | Growth on agar plates compared to control (visual) [2] | Growth on agar plates compared to control (visual) (green algae CD 1 Red [3]) | Optical Density at 680 nm after 7 days of media growth [4] | Optical Density at 680 nm after 7 days of media growth (green algae CD 1 Red [5]) | Average radii of the inhibition zones [6, 10] | Average radii of the inhibition zones ([6]; Syn. 7002, herbicide concentration 3 mM, 5 days) | zone of inhibition at 30000 µM [6, 11] | zone of inhibition at 300000 µM [6, 11] | Optical Density at 680 nm after 7 days of media growth [7] | Average radii of the inhibition zones ([6]; Syn. 7002, herbicide concentration 300 mM, 5 days) | zone of inhibition at 3000 µM ([6]; Synechococcus, 120 h, Syn. 7002, herbicide concentration 3 mM, 5 days, read-out: Average radii of the inhibition zones) | zone of inhibition at 30000 µM ([6]; Synechococcus, 120 h, Syn. 7002, herbicide concentration 30 mM, 5 days, read-out: Average radii of the inhibition zones)
1 | C=CC(=O)N(CC(=O)O)CP(=O)(O)O [AA, N-Acryloyl-N-(phosphonomethyl)glycine] | 1.24^c | do not display reasonable toxicity | poorly soluble in most organic solvents | soluble in water | 20 ± 2 mm | Bleaching | complete inhibition of growth and bleaching | complete inhibition of growth and bleaching | complete inhibition of growth and bleaching | 0.07 | 0.02 | No | No | 6.5 mm | 15 mm | 0.54 |  |  | 
2 | O=C(O)CNCP(=O)(O)O [Glyphosate, N-(Phosphonomethyl)glycine, reference compound] | 1.20^c | do not display reasonable toxicity | poor solubility in organic solvents |  | 22.5 ± 2 mm | Bleaching | complete inhibition of growth and bleaching | complete inhibition of growth and bleaching | complete inhibition of growth and bleaching | 0.04 | 0.02 | No |  |  |  | 0.58 | Complete | 6 mm | 8 mm
